Data reported in ChEMBL document CHEMBL3616468, “Spirooxindole-derived morpholine-fused-1,2,3-triazoles: Design, synthesis, cytotoxicity and apoptosis inducing studies” (Eur J Med Chem, 2015).
pIC50: −log10 of the molar value. The source made the active and inactive calls. The rule behind the calls is not given here.

How the values were obtained:
[1] = system: HeLa; test: Antiproliferative activity against human HeLa cells after 48 hrs by MTT assay; type: functional, cell-based
[2] = system: MCF7; test: Antiproliferative activity against human MCF7 cells after 48 hrs by MTT assay; type: functional, cell-based; settings: MCF7, 48 h
[3] = system: A549; test: Antiproliferative activity against human A549 cells after 48 hrs by MTT assay; type: functional, cell-based; settings: A549, 48 h
[4] = system: DU-145; test: Antiproliferative activity against human DU145 cells after 48 hrs by MTT assay; type: functional, cell-based; settings: DU-145, 48 h
[5] = system: A549; test: Inhibition of cell migration in human A549 cells at cytotoxic IC50 level after 24 to 48 hrs by wound healing assay; type: functional
[6] = system: A549; test: Inhibition of cell migration in human A549 cells at cytotoxic IC50 level after 48 hrs by wound healing assay; type: functional
[7] = system: A549; test: Induction of morphological change in human A549 cells assessed as nucleus shrinkage at cytotoxic IC50 level after 48 hrs by phase contrast microscopic analysis; type: functional, cell-based
[8] = system: A549; test: Induction of cell cycle arrest in human A549 cells assessed as accumulation at G1 phase at 2 uM after 24 hrs by propidium iodide staining based flow cytometry (reference value: 72.27%); type: functional
[9] = system: A549; test: Induction of apoptosis in human A549 cells assessed as disruption of mitochondrial membrane potential at cytotoxic IC50 level after 24 hrs by rhodamine-123 staining based spectrofluorometry relative to control; type: functional
[10] = system: A549; test: Induction of apoptosis in human A549 cells assessed as chromatin condensation at cytotoxic IC50 level after 24 hrs by […] staining based confocal fluorescence microscopic analysis; type: functional, cell-based
[11] = system: A549; test: Induction of apoptosis in human A549 cells assessed as horseshoe shaped nuclei at cytotoxic IC50 level after 24 hrs by […] staining based confocal fluorescence microscopic analysis; type: functional, cell-based
[12] = system: A549; test: Induction of cell cycle arrest in human A549 cells assessed as accumulation at S phase at 1 uM after 24 hrs by propidium iodide staining based flow cytometry (reference value: 4.96%); type: functional
[13] = system: A549; test: Induction of cell cycle arrest in human A549 cells assessed as accumulation at G2/M phase at 2 uM after 24 hrs by propidium iodide staining based flow cytometry (reference value: 21.85%); type: functional
[14] = system: A549; test: Induction of apoptosis in human A549 cells assessed as increase in intracellular reactive oxygen species level at cytotoxic IC50 level after 24 hrs by DCFH-DA staining based spectrofluorometry relative to control; type: functional
[15] = system: A549; test: Induction of morphological change in human A549 cells assessed as cell detachment at cytotoxic IC50 level after 48 hrs by phase contrast microscopic analysis; type: functional, cell-based
[16] = system: A549; test: Induction of cell cycle arrest in human A549 cells assessed as accumulation at G2/M phase at 1 uM after 24 hrs by propidium iodide staining based flow cytometry (reference value: 21.85%); type: functional
[17] = system: A549; test: Induction of apoptosis in human A549 cells assessed as extremely condensed chromatin at 0.5 uM after 24 hrs by acridine orange/ethidium bromide staining based fluorescence microscopic analysis; type: functional, cell-based
[18] = system: A549; test: Induction of apoptosis in human A549 cells assessed as irregular distribution of chromatin at 1 uM after 24 hrs by acridine orange/ethidium bromide staining based fluorescence microscopic analysis; type: functional, cell-based
[19] = system: A549; test: Induction of cell cycle arrest in human A549 cells assessed as accumulation at S phase at 2 uM after 24 hrs by propidium iodide staining based flow cytometry (reference value: 4.96%); type: functional
[20] = system: A549; test: Induction of apoptosis in human A549 cells assessed as destructive fragmentation of nuclei at 1 uM after 24 hrs by acridine orange/ethidium bromide staining based fluorescence microscopic analysis; type: functional, cell-based
[21] = system: A549; test: Inhibition of cell migration in human A549 cells at cytotoxic IC50 level after 24 hrs by wound healing assay; type: functional
[22] = system: A549; test: Induction of apoptosis in human A549 cells assessed as fragmented nuclei at cytotoxic IC50 level after 24 hrs by […] staining based confocal fluorescence microscopic analysis; type: functional, cell-based
[23] = system: A549; test: Induction of apoptosis in human A549 cells assessed as extremely condensed chromatin at 2 uM after 24 hrs by acridine orange/ethidium bromide staining based fluorescence microscopic analysis; type: functional, cell-based
[24] = system: A549; test: Induction of apoptosis in human A549 cells assessed as cell membrane blebbing at 0.5 uM after 24 hrs by acridine orange/ethidium bromide staining based fluorescence microscopic analysis; type: functional
[25] = system: A549; test: Anticancer activity against human A549 cells assessed as decrease in viable cells at cytotoxic IC50 level after 48 hrs by phase contrast microscopic analysis; type: functional, cell-based
[26] = system: A549; test: Induction of cell cycle arrest in human A549 cells assessed as accumulation at G1 phase at 1 uM after 24 hrs by propidium iodide staining based flow cytometry (reference value: 72.27%); type: functional

N#Cc1ccc(CN2C(=O)C3(Cn4nncc4CO3)c3cc(Cl)ccc32)cc1 (configuration not stated)
pIC50 [1]: 4.65
pIC50 [2]: 4.99
pIC50 [3]: 5.10
pIC50 [4]: 4.55

O=C1N(Cc2ccccc2)c2ccc(Br)cc2C12Cn1nncc1CO2 (configuration not stated)
pIC50 [1]: 4.50
pIC50 [2]: 4.53
pIC50 [3]: 4.83
pIC50 [4]: 4.31

Cc1ccc2c(c1)C1(Cn3nncc3CO1)C(=O)N2C (configuration not stated)
pIC50 [1]: 4.99
pIC50 [2]: 5.02
pIC50 [3]: 5.13
pIC50 [4]: 4.62

O=C1N(Cc2ccccc2)c2ccccc2C12Cn1nncc1CO2 (configuration not stated)
pIC50 [1]: < 4.30
pIC50 [2]: 4.75
pIC50 [3]: 4.98
pIC50 [4]: < 4.30

CCN1C(=O)C2(Cn3nncc3CO2)c2cc(Br)ccc21 (configuration not stated)
pIC50 [1]: < 4.30
pIC50 [2]: < 4.30
pIC50 [3]: < 4.30
pIC50 [4]: < 4.30

O=C1N(Cc2ccccc2)c2ccc(F)cc2C12Cn1nncc1CO2 (configuration not stated)
pIC50 [1]: < 4.30
pIC50 [2]: 4.44
pIC50 [3]: 4.70
pIC50 [4]: 4.56

CN1C(=O)C2(Cn3nncc3CO2)c2cc(F)ccc21 (configuration not stated)
pIC50 [1]: < 4.30
pIC50 [2]: < 4.30
pIC50 [3]: < 4.30
pIC50 [4]: < 4.30

Cc1ccc2c(c1)C1(Cn3nncc3CO1)C(=O)N2Cc1ccccc1 (configuration not stated)
pIC50 [1]: 4.74
pIC50 [2]: 4.70
pIC50 [3]: 4.84
pIC50 [4]: 4.71

CCN1C(=O)C2(Cn3nncc3CO2)c2cc(F)ccc21 (configuration not stated)
pIC50 [1]: < 4.30
pIC50 [2]: < 4.30
pIC50 [3]: < 4.30
pIC50 [4]: < 4.30

N#Cc1ccc(CN2C(=O)C3(Cn4nncc4CO3)c3ccccc32)cc1 (configuration not stated)
pIC50 [1]: 4.67
pIC50 [2]: 4.77
pIC50 [3]: 4.90
pIC50 [4]: 4.69

O=C1N(Cc2ccc(Br)cc2)c2ccc(F)cc2C12Cn1nncc1CO2 (configuration not stated)
pIC50 [1]: 4.84
pIC50 [2]: 5.08
pIC50 [3]: 5.36
pIC50 [4]: 4.43

CN1C(=O)C2(Cn3nncc3CO2)c2ccccc21 (configuration not stated)
pIC50 [1]: 4.32
pIC50 [2]: 4.56
pIC50 [3]: 4.70
pIC50 [4]: < 4.30

O=C1N(Cc2ccc(Br)cc2)c2ccccc2C12Cn1nncc1CO2 (configuration not stated)
pIC50 [1]: 4.81
pIC50 [2]: 4.87
pIC50 [3]: 4.84
pIC50 [4]: 4.58

O=C1N(Cc2ccc(Br)cc2)c2ccc(Cl)cc2C12Cn1nncc1CO2 (configuration not stated)
pIC50 [1]: < 4.30
pIC50 [2]: 4.50
pIC50 [3]: 4.63
pIC50 [4]: < 4.30

O=C1N(Cc2ccccc2)c2ccc(Cl)cc2C12Cn1nncc1CO2 (configuration not stated)
pIC50 [1]: 4.82
pIC50 [2]: 4.78
pIC50 [3]: 4.89
pIC50 [4]: 4.48

CN1C(=O)C2(Cn3nncc3CO2)c2cc(Br)ccc21 (configuration not stated)
pIC50 [1]: < 4.30
pIC50 [2]: < 4.30
pIC50 [3]: < 4.30
pIC50 [4]: < 4.30

CCN1C(=O)C2(Cn3nncc3CO2)c2cc(Cl)ccc21 (configuration not stated)
pIC50 [1]: < 4.30
pIC50 [2]: 4.54
pIC50 [3]: 4.80
pIC50 [4]: 4.63

CCN1C(=O)C2(Cn3nncc3CO2)c2ccccc21 (configuration not stated)
pIC50 [1]: 4.95
inhibition (INH) [5]: 38.1%
inhibition (INH) [6]: 56.1%
Activity [7]: Active
Activity [8]: 46.04%
Activity [9]: 48.2%
Activity [10]: Active
Activity [11]: Active
Activity [12]: 15.63%
Activity [13]: 35.61%
pIC50 [2]: 5.05
fold change (FC) [14]: 2.6
Activity [15]: Active
Activity [16]: 19.77%
Activity [17]: Active
Activity [18]: Active
pIC50 [3]: 5.73
Activity [19]: 16.2%
Activity [20]: Active
inhibition (INH) [21]: 54.9%
pIC50 [4]: 4.70
Activity [22]: Active
Activity [23]: Active
Activity [24]: Active
Activity [25]: Active
Activity [26]: 60.21%

COc1cccc2c1C(=O)c1c(O)c3c(c(O)c1C2=O)C[C@@](O)(C(=O)CO)C[C@@H]3O[C@H]1C[C@H](N)[C@H](O)[C@H](C)O1 [DOXORUBICIN]
pIC50 [1]: 5.90
pIC50 [2]: 5.98
pIC50 [4]: 5.72

CN1C(=O)C2(Cn3nncc3CO2)c2cc(Cl)ccc21 (configuration not stated)
pIC50 [1]: < 4.30
pIC50 [2]: 4.45
pIC50 [3]: < 4.30
pIC50 [4]: < 4.30

O=c1[nH]cc(F)c(=O)[nH]1 [FLUOROURACIL]
pIC50 [1]: 5.08
pIC50 [3]: 5.14
pIC50 [4]: 5.22

O=C1N(Cc2ccc(Br)cc2)c2ccc(Br)cc2C12Cn1nncc1CO2 (configuration not stated)
pIC50 [1]: 4.92
inhibition (INH) [5]: 38.1%
Activity [7]: Active
Activity [9]: Active
Activity [10]: Active
Activity [11]: Active
pIC50 [2]: 5.20
fold change (FC) [14]: 2.3
Activity [15]: Active
pIC50 [3]: 5.37
pIC50 [4]: 5.09
Activity [22]: Active
Activity [25]: Active
